Source: PubChem BioAssay (NCI)
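Protocol summary: plate cells (96-well), add compound at 5 concentrations, incubate 48 h, interpolate endpoints linearly. Abbreviation: GI50, concentration required for 50% inhibition of growth. Definition used: TGI = concentration required for complete inhibition of growth.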

Experiments:
Assay in all cases: NCI-60 cell line screen, 48 h; in the data active = GI50 below about 0.43 µM; inactive = the rest
[1] = system: U251 CNS
[2] = system: IGROV1 ovarian
[3] = system: SK-OV-3 ovarian
[4] = system: A498 renal
[5] = system: SK-MEL-28 melanoma
[6] = system: MDA-MB-231 breast
[7] = system: SF-295 CNS
[8] = system: DU-145 prostate
[9] = system: M14 melanoma
[10] = system: SNB-75 CNS
[11] = system: KM12 colon
[12] = system: LOX IMVI melanoma
[13] = system: COLO 205 colon
[14] = system: CAKI-1 renal
[15] = system: OVCAR-8 ovarian
[16] = system: HOP-62 NSCLC
[17] = system: 786-0 renal
[18] = system: HL-60(TB) leukemia
[19] = system: HT29 colon
[20] = system: SN12C renal
[21] = system: NCI-H226 lung
[22] = system: RPMI-8226 leukemia
[23] = system: MOLT-4 leukemia
[24] = system: SK-MEL-2 melanoma
[25] = system: A549 NSCLC
[26] = system: HS 578T breast
[27] = system: SNB-19 CNS
[28] = system: OVCAR-4 ovarian
[29] = system: MALME-3M melanoma
[30] = system: K-562 leukemia
[31] = system: CCRF-CEM leukemia
[32] = system: MCF7 breast
[33] = system: SF-539 CNS
[34] = system: MDA-MB-435
[35] = system: SW-620 colon
[36] = system: SF-268 CNS
[37] = system: UO-31 renal
[38] = system: NCI-H23 lung
[39] = system: NCI/ADR-RES ovarian
[40] = system: OVCAR-3 ovarian
[41] = system: T-47D breast
[42] = system: ACHN renal
[43] = system: NCI-H460 lung
[44] = system: PC-3 prostate
[45] = system: SK-MEL-5 melanoma
[46] = system: UACC-257 melanoma
[47] = system: NCI-H522 lung
[48] = system: HCT-116 colon
[49] = system: OVCAR-5 ovarian
[50] = system: SR leukemia
[51] = system: HCT-15 colon
[52] = system: TK-10 renal
[53] = system: HOP-92 NSCLC
[54] = system: HCC-2998 colon
[55] = system: EKVX NSCLC
[56] = system: UACC-62 melanoma
[57] = system: RXF 393 renal

CCOCC[P+](c1ccccc1)(c1ccccc1)c1ccccc1
61.4 µM: TGI [29]
79.8 µM: TGI [3]
87.8 µM: TGI [25]
72.9 µM: TGI [44]
25 µM: TGI [45]
80.9 µM: TGI [38]
47.9 µM: TGI [24]
99.5 µM: TGI [26]
26.5 µM: TGI [13]
50.9 µM: TGI [47]
96.3 µM: TGI [19]
49.6 µM: TGI [46]
70.6 µM: TGI [5]
78.6 µM: TGI [7]
40.4 µM: TGI [22]
66.4 µM: TGI [32]
42.3 µM: TGI [12]
64.2 µM: TGI [4]
inactive: GI50 [1] 18.1 µM | GI50 [2] 13.5 µM | GI50 [3] 20.1 µM | GI50 [4] 17.6 µM | GI50 [5] 16 µM | GI50 [6] 22.6 µM | GI50 [7] 20.4 µM | GI50 [8] 27.5 µM | GI50 [9] 26.5 µM | GI50 [10] 10.8 µM | GI50 [11] 11.2 µM | GI50 [12] 15.3 µM | GI50 [13] 11.7 µM | GI50 [14] 44.1 µM | GI50 [15] 22.2 µM | GI50 [16] 29.7 µM | GI50 [17] 31.3 µM | GI50 [18] 12.2 µM | GI50 [19] 16.2 µM | GI50 [20] 24.6 µM | GI50 [21] 17.8 µM | GI50 [22] 4.55 µM | GI50 [23] 31.4 µM | GI50 [24] 18.6 µM | GI50 [25] 16.4 µM | GI50 [26] 21.7 µM | GI50 [27] 21.3 µM | GI50 [28] 11.9 µM | GI50 [29] 10.3 µM | GI50 [30] 14.9 µM | GI50 [31] 23 µM | GI50 [32] 13.7 µM | GI50 [33] 23.2 µM | GI50 [34] 9.26 µM | GI50 [35] 25.2 µM | GI50 [36] 27.3 µM | GI50 [37] 34.8 µM | GI50 [38] 17.5 µM | GI50 [39] > 100 µM | GI50 [40] 19.3 µM | GI50 [41] 4.21 µM | GI50 [42] 35.8 µM | GI50 [43] 25.7 µM | GI50 [44] 10.8 µM | GI50 [45] 10.1 µM | GI50 [46] 6.86 µM | GI50 [47] 11.9 µM | GI50 [48] 14.7 µM | GI50 [49] 25.9 µM | GI50 [50] 12.1 µM | GI50 [51] 73.8 µM
53.4 µM: TGI [10]
63.7 µM: TGI [2]
36 µM: TGI [18]
92.5 µM: TGI [1]
> 100 µM: TGI [6] | TGI [8] | TGI [9] | TGI [11] | TGI [14] | TGI [15] | TGI [16] | TGI [17] | TGI [20] | TGI [21] | TGI [23] | TGI [27] | TGI [28] | TGI [30] | TGI [31] | TGI [33] | TGI [35] | TGI [36] | TGI [37] | TGI [39] | TGI [40] | TGI [41] | TGI [42] | TGI [43] | TGI [48] | TGI [49] | TGI [50] | TGI [51]
51.9 µM: TGI [34]

COc1ccc(OC)c2c3c(ncc12)-c1cc2c(cc1C3)OCO2
> 100 µM: TGI [52] | TGI [2] | TGI [3] | TGI [5] | TGI [6] | TGI [7] | TGI [8] | TGI [9] | TGI [53] | TGI [10] | TGI [11] | TGI [13] | TGI [14] | TGI [15] | TGI [17] | TGI [18] | TGI [20] | TGI [54] | TGI [22] | TGI [55] | TGI [24] | TGI [25] | TGI [27] | TGI [28] | TGI [30] | TGI [31] | TGI [34] | TGI [35] | TGI [37] | TGI [39] | TGI [40] | TGI [41] | TGI [42] | TGI [43] | TGI [44] | TGI [45] | TGI [46] | TGI [56] | TGI [47] | TGI [57] | TGI [48] | TGI [49] | TGI [50] | TGI [51]
62.1 µM: TGI [26]
inactive: GI50 [52] > 100 µM | GI50 [2] 4.24 µM | GI50 [3] > 100 µM | GI50 [5] > 100 µM | GI50 [6] 4.76 µM | GI50 [7] 27 µM | GI50 [8] 48.4 µM | GI50 [53] > 100 µM | GI50 [10] > 100 µM | GI50 [11] > 100 µM | GI50 [13] > 100 µM | GI50 [14] > 100 µM | GI50 [15] 9.48 µM | GI50 [17] 22.5 µM | GI50 [18] 24.8 µM | GI50 [20] > 100 µM | GI50 [54] > 100 µM | GI50 [22] > 100 µM | GI50 [55] 93.4 µM | GI50 [24] > 100 µM | GI50 [25] > 100 µM | GI50 [26] 7.01 µM | GI50 [27] > 100 µM | GI50 [28] > 100 µM | GI50 [30] 24.6 µM | GI50 [31] > 100 µM | GI50 [34] > 100 µM | GI50 [35] > 100 µM | GI50 [37] > 100 µM | GI50 [39] > 100 µM | GI50 [40] 26.9 µM | GI50 [41] > 100 µM | GI50 [42] 2.97 µM | GI50 [43] 5.6 µM | GI50 [44] > 100 µM | GI50 [45] 22.1 µM | GI50 [46] 38.5 µM | GI50 [56] > 100 µM | GI50 [47] 52.3 µM | GI50 [57] > 100 µM | GI50 [49] > 100 µM | GI50 [50] 4.22 µM | GI50 [51] 3.87 µM
3.31 µM: TGI [1]
1.85 µM: TGI [12]
0.0603 µM: TGI [16]
active: GI50 [1] 0.209 µM | GI50 [9] 0.316 µM | GI50 [12] 0.104 µM | GI50 [48] 0.249 µM
